Reference: patent publication US20010047099A1, “4-aminopicolinates and their use as herbicides” (priority 2000, published 2001)
Where two headings read alike, the source gives them in different places.

Tests used:
Format in all cases: in vivo
[1] = test system: cocklebur (Xanthium strumarium); assay: Preemergence herbicidal activity; settings: pre-emergence, 504 h
Summary of the method: (§1)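 Seeds were sown in a 70:30 loam/sand mix (pH about 8.1, about 1.5 percent organic matter), and the soil surface was sprayed with compound in aqueous acetone/DMSO containing 0.1 percent Tween 155. Pots were kept in a greenhouse at 23-29° C day, 15 hr photoperiod, top-irrigated; injury was scored visually after 3 weeks.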

[2] = test system: lambsquarters (Chenopodium album); assay: Preemergence herbicidal activity; settings: pre-emergence, 504 h
Summary of the method: as §1

[3] = test system: Rox orange sorghum (sorghum bicolor); assay: Preemergence herbicidal activity; settings: pre-emergence, 504 h
Summary of the method: as §1

[4] = test system: wild oats (Avena fatua); assay: Preemergence herbicidal activity; settings: pre-emergence, 504 h
Summary of the method: as §1

[5] = test system: giant foxtail (Setaria faberi); assay: Preemergence herbicidal activity; settings: pre-emergence, 504 h
Summary of the method: as §1

[6] = test system: wild poinsettia (Euphorbia heterophylla); assay: Preemergence herbicidal activity; settings: pre-emergence, 504 h
Summary of the method: as §1

[7] = test system: Canada thistle (Cirsium arvense); assay: Range & Pasture Crop Testing (postemergence track sprayer); settings: for GR80 CIRAR: Table 10, clover pasture, postemergence
Description: (§2) By applying the well-accepted probit analysis as described by J. Berkson in Journal of the […], 48, 565 (1953) and by D. Finney in “Probit Analysis” Cambridge University Press (1952), the above data can be used to calculate GR50 and GR80 values, which are defined as growth reduction factors that correspond to the effective dose of herbicide required to kill or control 50 percent or 80 percent, respectively, of a target plant.
(§3) Rates are calculated based upon 5 doses being applied. The high rate (X), followed by serial dilutions of 1/2×, 1/4×, 1/8× and 1/16×. Compound requirements are based upon the 187 L/ha carrier volume, specifications of the delivery system (Mandel track sprayer) and generating 24 mL of technical spray material to allow for the dilutions and overage in the sprayer. [formula]
(§4) All technical materials were formulated in 97:3 (acetone:DMSO) with 0.25% X-77. The total volume of solvent is maintained at less than 7%. An overhead Mandel track sprayer calibrated to deliver 187 L/ha was used for all treatment applications (postemergence). Picloram was included as a comparison treatment.
(§5) Solutions were applied with a mechanized track-sprayer at the following settings:
(§6) Spray height: 17 inches above top of plants
(§7) This provides an application volume of 187 L/ha.
(§8) Percent weed control (burn down) was evaluated 3 weeks after treatment. Visual control on a 0-100 linear scale was used, with 0 representing no control and 100 representing total control. Burn down ratings were taken for annual and perennial weed species.

[8] = test system: field bindweed (Convolvulus arvensis); assay: as above; settings: for GR80 CONAR: Table 10, clover pasture, postemergence
Description: as §2, §3, §4, §5, §6, §7, §8

[9] = Table 7, rate 35 g/Ha, after 3 weeks, read-out: PREEMERGENCE HERBICIDAL ACTIVITY % CONTROL XANST
[10] = Table 7, rate 35 g/Ha, after 3 weeks, read-out: PREEMERGENCE HERBICIDAL ACTIVITY % CONTROL CHEAL
[11] = Table 7, rate 35 g/Ha, after 3 weeks, read-out: PREEMERGENCE HERBICIDAL ACTIVITY % CONTROL SORBI
[12] = Table 7, rate 35 g/Ha, after 3 weeks, read-out: PREEMERGENCE HERBICIDAL ACTIVITY % CONTROL AVEFA
[13] = Table 7, rate 35 g/Ha, after 3 weeks, read-out: PREEMERGENCE HERBICIDAL ACTIVITY % CONTROL SETFA
[14] = Table 7, rate 35 g/Ha, after 3 weeks, read-out: PREEMERGENCE HERBICIDAL ACTIVITY % CONTROL EPHHL

Structure (SMILES) | inhibition at 35 g/ha ([1]; read-out: PR[…] % CONTROL XANST, Table 7, rate 35 g/Ha, after 3 weeks) [%] | inhibition at 35 g/ha ([2]; read-out: PR[…] % CONTROL CHEAL, Table 7, rate 35 g/Ha, after 3 weeks) [%] | inhibition at 35 g/ha ([3]; read-out: PR[…] % CONTROL SORBI, Table 7, rate 35 g/Ha, after 3 weeks) [%] | inhibition at 35 g/ha ([4]; read-out: PR[…] % CONTROL AVEFA, Table 7, rate 35 g/Ha, after 3 weeks) [%] | inhibition at 35 g/ha ([5]; read-out: PR[…] % CONTROL SETFA, Table 7, rate 35 g/Ha, after 3 weeks) [%] | inhibition at 35 g/ha ([6]; read-out: PR[…] % CONTROL EPHHL, Table 7, rate 35 g/Ha, after 3 weeks) [%] | Post-emergent GR80 CIRAR ([7]; Table 8, salts of Compound 1, 3 week evaluation) [g/Ha] | Post-emergent GR80 CONAR ([8]; Table 8, salts of Compound 1, dose for 80 percent control) [g/Ha] | inhibition at 35 g/ha [1, 9] [%] | inhibition at 35 g/ha [2, 10] [%] | inhibition at 35 g/ha [3, 11] [%] | inhibition at 35 g/ha [4, 12] [%] | inhibition at 35 g/ha [5, 13] [%] | inhibition at 35 g/ha [6, 14] [%] | Post-emergent Evaluation - % control CIRAR ([7]; Table 9, rate 70 g/Ha, 3 weeks after treatment) [%] | GR80 CIRAR [7] [g/ha] | GR80 CONAR [8] [g/ha]
Nc1cc(Cl)nc(C(=O)O)c1Cl [Compound 1, 4-Amino-3,6-dichloropyridine-2-carboxylic acid] | 99 | 99 | 60 | 37 | 40 | 62 | 47 | 59 | – | – | – | – | – | – | – | – | –
Nc1cc(Br)nc(C(=O)O)c1Cl [Compound 14, 4-Amino-6-bromo-3-chloropyridine-2-carboxylic acid] | – | – | – | – | – | – | – | – | 100 | 100 | 50 | 40 | 98 | 70 | – | – | –
COc1c(C(=O)O)nc(Br)c(Cl)c1N [Compound 42, 4-Amino-6-bromo-5-chloro-3-methoxypyridine-2-carboxylic acid] | – | – | – | – | – | – | – | – | 98 | 90 | 20 | 30 | 30 | 40 | – | – | –
COC(=O)c1nc(Cl)cc(N)c1Cl [Compound 3, methyl 4-amino-3,6-dichloropyridine-2-carboxylate] | – | – | – | – | – | – | – | – | 90 | 100 | 30 | 10 | 40 | 20 | 90 | <17.5 | 127.7
CCOC(=O)c1nc(Cl)cc(N)c1Cl [Compound 4, ethyl 4-amino-3,6-dichloropyridine-2-carboxylate] | – | – | – | – | – | – | – | – | – | – | – | – | – | – | – | <17.5 | 59
